Like-named read-outs stand apart in the source and are kept apart here.

For data set [1], the target named is bovine serum albumin (BSA) (Bos taurus, UniProt P02769). Nature of the data set: Interaction with BSA (MALDI-TOF MS). In kind it is binding. The note with it: BSA 30 μM, complex 1 mM, 48 h at 37 °C. The protocol:
Bovine serum albumin (BSA, 30 μM in 50 mM NH4HCO3) was incubated with the selected complexes (3a or 3b, 1 mM) at 37 °C for 48 h. Each complex was preliminarily dissolved in 50 μL of methanol. Following the incubation, an aliquot of the protein was adsorbed by repeated aspiration and release (20 times, 10-μL volume) into a ZipTip-C4 pipet tip (Merck, Darmstadt, Germany) that had been pre-equilibrated in 0.1% trifluoroacetic acid (TFA), washed by the equilibrating solution, and eluted into 10 μL of 70% acetonitrile containing 0.1% TFA. The eluate was subsequently subjected to evaporation using a vacuum centrifuge, and the residue was dissolved in 3 μL of 0.1% TFA. A 1 μL aliquot of this solution was deposited on an MSP Big Anchor 96 target plate (Bruker Daltonik, Bremen, Germany), onto which 1 μL of the matrix solution (sinapinic acid, 12 mg/mL in 0.1% TFA and 50% acetonitrile) was immediately superimposed. The sample was then allowed to dry. Mass spectra were acquired using a Microflex LRF20 MALDI-TOF mass spectrometer operated in a linear positive ion mode and controlled using flexControl 3.4 software from Bruker Daltonik). Protein Standard II, from Bruker Daltonik, was used for external calibration. All spectra were subjected to processing by using flexAnalysis 3.4 software from Bruker Daltonik.

For data set [2], the system named is A2780 cells. The experiment in a line: Autophagy analysis (CYTO-ID). In kind it is cell-based, human. Particulars: A2780, complexes 4 μM, cisplatin 15 μM, 24 h. The protocol:
(§1) The A2780 ovarian carcinoma cell line was received from Merck (reference 93112519–1VL) and cultured at 37 °C in an environment with 5% CO2. The cultivation was carried out in complete cell culture medium (RPMI-1640 medium, Merck), which was supplemented with 10% fetal bovine serum (FBS, Merck), 1% L-glutamine (Merck) and 1% penicillin–streptomycin–neomycin (PSN, Merck). For the flow cytometry experiments, three independent duplicates were analyzed using a BD FACSVerse flow cytometer (Becton Dickinson, USA). At least 5 × 10^3 events were recorded for each sample. The same procedure was replicated for the experiments described below. Solutions of the complexes were formulated using the stock solutions (Section 5.1).
The potential induction of autophagy by 3a and 3b in A2780 cells was studied with the kit CYTO-ID Autophagy Detection 2.0 (from Enzo Life Sciences, USA), following the protocol provided by the manufacturer. […] The supernatant was collected, cells were washed with warm PBS, detached using 0.25% trypsin-EDTA (Gibco) and resuspended in a cell culture medium. Diluted CYTO-ID Green stain solution (according to the protocol) was used to stain the samples. Following incubation for 30 min in a light-protected environment, the samples were washed with PBS (phosphate-buffered saline). Subsequently, a flow cytometry experiment was conducted. A mixture of chloroquine (10 μM) and rapamycin (0.5 μM) was used as positive control.

The test system of data set [3] is A2780 cells. The experiment in a line: Mitochondrial membrane potential analysis (MITO-ID). The note with it: A2780, complexes 4 μM, cisplatin 15 μM, 24 h. In kind it is cell-based, human. The procedure: as §1
To investigate the effects on mitochondrial membrane potential of A2780 cells, an MITO-ID Membrane potential detection kit (Enzo Life Sciences, USA) was used. Cells were seeded in a 24-well (5 × 10^4 cells/well), and then incubated with 4 μM solution of complexes for 24 h. The supernatant was collected, cells were washed with warm PBS, detached using 0.25% trypsin-EDTA (Gibco) and resuspended in a cell culture medium. Then, samples were stained with diluted MITO-ID MP Detection Reagent (according to the protocol) at RT for 15 min, prior to flow cytometry analysis. A positive control was established by treating the samples with 2 μM carbonyl cyanide 3-chlorophenylhydrazone.

Data set [4] concerns A2780 human ovarian carcinoma cell line. The experiment in a line: MTT in vitro cytotoxicity, A2780. In kind it is cell-based. The protocol: (§2) The cytotoxicity assessment was conducted on various human cancer cell lines, including A2780 ovarian carcinoma, A2780R cisplatin-resistant ovarian carcinoma, MCF-7 breast, HOS osteosarcoma, A549 epithelial lung, PANC-1 pancreatic, Caco-2 colorectal, PC-3 prostate adenocarcinoma, and HeLa cervical cell lines. Additionally, the assessment extended to a normal human fetal fibroblast cell line (MRC-5). Cells were obtained from ATCC collection and cultivated according to the producer’s instructions. Stock solutions of the compounds were prepared in DMF immediately before application, and diluted with H2O to achieve the final concentration of 0.1% v/v DMF.[99] The culture media were enriched with 10% fetal calf serum. Subsequently, the cells were exposed to the tested compounds, vehicle (0.1% v/v DMF) and Triton X-100 (1% v/v), during incubation. The conventional MTT assay was carried out following different incubation periods (Tables 5-6). The absorbance was measured at 570 nm by using a spectrophotometer (Infinite M200, Schoeller Instruments, Prague, Czech Republic). The obtained data are presented as the percentage of cell viability with 100% representing negative control treatment (0.1% v/v DMF) and 0% representing the positive control (Triton X-100). The half-maximal inhibitory concentrations (IC50) were determined from dose–response curves using GraphPad Prism 6 software (GraphPad Software, San Diego, USA).

The subject of data set [5] is A549 human lung adenocarcinoma cell line. The experiment in a line: MTT in vitro cytotoxicity, A549. The note with it: incubation 24 h, mean ± SD. In kind it is cell-based. The procedure: as §2
Data set [6] has as its system PANC-1 human pancreatic carcinoma cell line. Nature of the data set: MTT in vitro cytotoxicity, PANC-1. Type of data set: cell-based. Particulars: incubation 24 h, mean ± SD. The procedure: as §2
Data set [7] deals with A2780R cisplatin-resistant human ovarian carcinoma cell line. The experiment in a line: MTT in vitro cytotoxicity, A2780R. Type of data set: cell-based. The note with it: incubation 24 h, mean ± SD. The procedure: as §2
Data set [8] deals with MCF-7 breast adenocarcinoma cell line. The experiment in a line: MTT in vitro cytotoxicity, MCF-7. Type of data set: cell-based, human. The note with it: incubation 24 h, mean ± SD. The procedure:
as §2

Data set [9] in a line: Octanol/water partition coefficient, shake-flask with UV–vis. In kind it is physicochemical. The note with it: 21 °C. The procedure: Partition coefficients (Pow), defined by the formula Pow = corg/caq, wherein corg and caq denote the molar concentrations of the specific compound in octanol and aqueous phases, respectively, were obtained using the shake-flask method with UV–vis measurements, following a previously described procedure (Table 3).[98] All the operations were carried out at 21 ± 1 °C. The wavelength corresponding to the maximum absorption of each compound within the range 350–430 nm was employed for quantifying using UV–vis techniques.

The nature of data set [10]: Stability in H2O/CH3OH solution (UV–vis). In kind it is physicochemical. Particulars: ca. 5:1 v/v. The procedure: […] The percentage of remaining complex in the solution was calculated by considering the change in absorbance at the characteristic wavelength. The identical procedure was employed to evaluate stability in MeOH and DMEM (about 1:5 v/v) solutions. DMEM stands for the cell culture medium (containing 1000 mg/L glucose and L-glutamine, excluding sodium bicarbonate and phenol red; reference D2902-Merck).

Data set [11] has as its system HOS human osteosarcoma cell line. The experiment in a line: MTT in vitro cytotoxicity, HOS. The note with it: incubation 24 h, mean ± SD. In kind it is cell-based. The procedure: as §2
The mark [12] stands for this setting: MTT, incubation 24 h, mean ± SD (Table 5), read-out: IC50 A2780.
The mark [13] stands for this setting: time-course experiment (Table 6), 24 h, mean ± SD, read-out: IC50 A2780, incubation time 24 h.
The mark [14] stands for this setting: time-course experiment (Table 6), 48 h, mean ± SD, read-out: IC50 A2780, incubation time 48 h.
[15] abbreviates: time-course experiment (Table 6), 72 h, mean ± SD, read-out: IC50 A2780, incubation time 72 h.

bovine serum albumin (BSA), sequence (P02769 25-607): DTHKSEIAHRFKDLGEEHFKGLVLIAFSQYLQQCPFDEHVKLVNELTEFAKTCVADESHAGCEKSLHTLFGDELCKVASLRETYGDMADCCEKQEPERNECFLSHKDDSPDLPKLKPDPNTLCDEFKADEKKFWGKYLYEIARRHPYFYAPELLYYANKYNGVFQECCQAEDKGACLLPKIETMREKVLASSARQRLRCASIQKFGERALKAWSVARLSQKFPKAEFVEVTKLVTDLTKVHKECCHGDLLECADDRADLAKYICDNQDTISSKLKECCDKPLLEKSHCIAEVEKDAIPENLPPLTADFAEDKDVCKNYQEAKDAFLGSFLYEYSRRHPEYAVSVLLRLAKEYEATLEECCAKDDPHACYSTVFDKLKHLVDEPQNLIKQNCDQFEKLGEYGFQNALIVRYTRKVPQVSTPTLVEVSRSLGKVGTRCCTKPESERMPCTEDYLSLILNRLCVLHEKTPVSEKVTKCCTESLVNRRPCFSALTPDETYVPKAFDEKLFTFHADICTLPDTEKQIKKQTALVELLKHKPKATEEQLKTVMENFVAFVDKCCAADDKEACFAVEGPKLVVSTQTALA

As to `CC12CCC3c4ccc(O)cc4CCC3C1CCC2=C=[CH][Ru]1(=[C]=O)([CH]2C=CC=C2)[C](=O)[Ru+]1(=[C]=O)[CH]1C=CC=C1.F[B-](F)(F)F` (mixture of isomers) [3b, [Ru2Cp2(CO)3{μ–η^1:η^2-CH=C=(estradiolylidene)}]BF4], the “mass variation of adduct with respect to BSA” value in [1] stood at 483 Da. Besides, the “autophagy level (in words)” value in the data set with A2780 cells [2] is “only moderately”. In addition, the “cell count with damaged mitochondrial membranes (in words)” value in the data set on A2780 cells [3] is recorded as “notable augmentation”. The IC50 in [4] (setting [12]) was determined as 3.4 ± 0.6 µM; in data set [4] (setting [13]), 4 ± 0.7 µM; in data set [4] (setting [14]), 3 ± 0.3 µM; in data set [4] (setting [15]), 2.8 ± 0.2 µM; in data set [5], 16.1 ± 1.3 µM; in data set [6] it was 19.8 ± 2.3 µM. Further, the values for the IC50 in data set [7], in data set [8] and in [11] were 4.6 ± 1.3 µM, 11.6 ± 1.5 µM and 12.6 ± 0.5 µM, respectively. In [9], the “Log Pow” value amounted to 1.24 ± 0.16. Also, the “residual complex % in H2O/CH3OH” value in [10] (30 min) was 99%; in [10] (2 h), 92%; in [10] (18 h) it was 43%.

In the case of `F[B-](F)(F)F.O=[C]=[Ru+]1([CH]2C=CC=C2)[C](=O)[Ru]1(=[C]=O)([CH]=C=C1CCCC1)[CH]1C=CC=C1` (stereo not shown) [3a, [Ru2Cp2(CO)3{μ–η^1:η^2-CH=C=(cyclopentylidene)}]BF4], the “mass variation of adduct with respect to BSA” value in data set [1] came out at 3434 Da. In addition, the “autophagy level (in words)” value in the data set with A2780 cells [2] is “not appreciable”. The “cell count with damaged mitochondrial membranes (in words)” value in the data set on A2780 cells [3] was “notable augmentation”. Also, the IC50 in [4] (setting [12]) was found to be 4.2 ± 0.9 µM; in data set [4] (setting [13]), 3.8 ± 0.7 µM; in data set [4] (setting [14]) it was 3.2 ± 0.2 µM; in [4] (setting [15]), 3.1 ± 0.2 µM; in data set [5] it was 25.3 ± 1.9 µM; in data set [6], 28.4 ± 3.9 µM. Also, the IC50 stood at 6.4 ± 1.9 µM in data set [7], 16.2 ± 1.7 µM in [8] and 14.6 ± 0.5 µM in data set [11]. Also, the “Log Pow” value in data set [9] is “–0.54 ± 0.02”. Besides, the “residual complex % in H2O/CH3OH” value in data set [10] (2 h) is 96%; in data set [10] (18 h) it was 78%.

The values above are taken from paper PMC10548421, “Anticancer Potential of Diruthenium Complexes with Bridging Hydrocarbyl Ligands from Bioactive Alkynols” (Inorganic Chemistry, 2023).
